Reference: US7186709B2, “Dihydropyrancarboxamides and uses thereof” (President and Fellows of Harvard College, priority 2002, dated 2007)

Columns and labels:
human Eg5 = molecular target: T1, human Eg5 (Homo sapiens, UniProt P52732); test: steady-state Eg5 ATPase assay (NADH-coupled); assay type: biochemical; details: library screen
T1 construct: 1 μM microtubules and 40 nM Eg5-367H; His6 (C); made in house; host or cells: pRSETa backbone
T1 sequence (P52732 1-367): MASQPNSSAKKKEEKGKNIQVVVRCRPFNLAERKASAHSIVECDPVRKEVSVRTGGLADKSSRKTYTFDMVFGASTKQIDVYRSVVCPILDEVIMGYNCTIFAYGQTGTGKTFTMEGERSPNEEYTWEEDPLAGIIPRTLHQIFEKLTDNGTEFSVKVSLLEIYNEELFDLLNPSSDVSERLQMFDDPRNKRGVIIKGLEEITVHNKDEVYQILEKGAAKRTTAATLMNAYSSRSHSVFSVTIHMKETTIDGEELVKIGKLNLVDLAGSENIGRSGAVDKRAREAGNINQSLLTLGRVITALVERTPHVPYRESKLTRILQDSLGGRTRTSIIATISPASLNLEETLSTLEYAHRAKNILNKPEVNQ
Excerpt: Coding regions for the expression of C-terminally His6-tagged constructs of human Eg5 were generated by polymerase chain reaction using a pBluescript template containing full length human Eg5 [23] and the following primers: a common N-terminal primer 5′-[…] and specific C-teminal primers; 5′-[…] (hEg5–367H), 5′-[…] (hEg5–405H), 5′-[…] (hEg5–437H). The PCR products were ligated into a pRSETa backbone. Eg5 protein constructs were expressed and purified as described previously [Woehike, G., Ruby, A. K., Hart, C. L., Ly, B., Hom-Booher, N. and Vale, R. D. (1997) Microtubule interaction site of the kinesin motor. Cell. 90, 207–216]. […] The concentration of Eg5 was measured using the Edelhoch [Pace, C. […]
We measured the ATPase activity of Eg5 in vitro using an assay that couples the hydrolysis of ATP to the oxidation of NADH [Woehike, G., Ruby, A. K., Hart, C. […] In the assay, the concentration of ATP remains constant however, the decrease in NADH fluorescence is a convenient measure of the amount of ATP turned over. […] Time-points for NADH fluorescence were measured in 384 well black plates (NalgeneNUNC) by a Wallac Victor^2 1420 multilabel counter, umbelliferone filter set (excitation: 355 nm, emission: 420 nm), and the steady-state rate of fluorescence decay was calculated using a linear fit by Microsoft Excel. […]

[1] = system: human A549 lung carcinoma cells; test: genistein suppressor screen (BrdU cytoblot with 100 μM genistein challenge); assay type: cell-based; details: A549 cells challenged with 100 μM genistein
Protocol: Both plates of stock solutions (10) were used in phenotypic assays. In particular, we exposed living human A549 lung carcinoma cells to 708 (324+384) stock solutions under two different assay conditions. These experiments were performed with a hand-held pin-transfer tool, though our complete technology platform includes a pin-transfer robot capable of mapping into multiple microtiter plates. In certain embodiments, cultured cells exposed to 5-bromodeoxyuridine (BrdU) will incorporate this base analog into their DNA when actively dividing, and this incorporation can be detected by cytoblot assay using antibodies directed against BrdU (B. R. Stockwell, S. J. Haggarty, S. L. Schreiber, High-throughput screening of small molecules in miniaturized mammalian cell-based assays involving post-translational modifications, Chem. Biol. 6 (1999) 71–83). […] Thus, ‘hits’ in the former assay are detected as a loss of signal in a high-signal array (FIG. 14(a)), while ‘hits’ in the latter assay are detected as a gain of signal in a lowsignal array (FIG. 14(b)). […]
For each of these assays, aliquots from each of the two plates (10) were exposed to cells in duplicate to ensure the fidelity of the results. Compounds were scored as ‘hits’ only if they scored strongly in both replicates of a given experiment. […]

Row | Structure (SMILES) | Eg5 inhibitory activity (human Eg5) | BrdU incorporation judged by cytoblot assay [1]
1 | CCO[C@H]1OC(C(=O)NCc2ccc(F)cc2)=C[C@@H](c2ccccc2)[C@H]1CCCO | found to inhibit Eg5 | 
2 | O=c1c(-c2ccc(O)cc2)coc2cc(O)cc(O)c12 [genistein, 4′,5,7 trihydroxyisoflavone] |  | impaired
